Results as given in the NIST ThermoML archive (doi:10.1021/je060271a).

Conditions: 343.15 K, Liquid, Vibrating tube method

CCCCCCCC(=O)OCC(COC(=O)CCCCCCC)(COC(=O)CCCCCCC)COC(=O)CCCCCCC [pentaerythritol tetraoctanoate]
Conditions	mass density [kg/m3]
665.9 kPa	926.5
687.8 kPa	926.6
706.6 kPa	926.4
730 kPa	926.5
755.6 kPa	926.6
778.5 kPa	926.5
802.8 kPa	926.6
832.2 kPa	926.4
862.6 kPa	926.6
881.1 kPa	926.6
902.3 kPa	926.7
920.9 kPa	926.6
940.4 kPa	926.6
964.7 kPa	926.7
985.7 kPa	926.6
1011.4 kPa	926.8
1034.9 kPa	926.7
1063.7 kPa	926.8
1088.9 kPa	926.8
1119.9 kPa	926.8
1147.2 kPa	926.8
1182.1 kPa	926.7
1218.2 kPa	926.8
1249.3 kPa	926.9
1282.5 kPa	926.8
1323.6 kPa	927.1
1359.7 kPa	927
1406.5 kPa	926.9
1447.6 kPa	927
1490.5 kPa	927
1543.8 kPa	927.1
1590.8 kPa	927.1
1650.5 kPa	927.1
1702.4 kPa	927.2
1763.5 kPa	927.2
1794.1 kPa	927.3
1881.2 kPa	927.4
1905.6 kPa	927.4
1913.3 kPa	927.3
1919.7 kPa	927.4
1926.3 kPa	927.3
1934.1 kPa	927.4
1941 kPa	927.5
1952.7 kPa	927.5
1970.2 kPa	927.3
2032.8 kPa	927.4
2121.2 kPa	927.7
2203.7 kPa	927.5
2331.4 kPa	927.7
2366.8 kPa	927.7
2379.6 kPa	927.9
2393.5 kPa	927.8
2403.9 kPa	927.9
2415.5 kPa	927.8
2424.6 kPa	927.8
2434.6 kPa	927.8
2446.8 kPa	927.8
2457.7 kPa	927.7
2468.6 kPa	927.9
2480.2 kPa	927.8
2493.9 kPa	927.9
2505.4 kPa	927.9
2519.4 kPa	927.9
2531.1 kPa	927.9
2543 kPa	927.9
2555.2 kPa	927.8
2569.2 kPa	927.9
2581.3 kPa	928
2593.5 kPa	927.9
2608.2 kPa	928
2620.9 kPa	927.9
2633.4 kPa	928.1
2646.4 kPa	927.9
2659 kPa	928
2674.6 kPa	928
2687.8 kPa	928
2700.8 kPa	928
2713.8 kPa	927.9
2729.6 kPa	928.1
2743.3 kPa	928
2756.7 kPa	927.9
2773 kPa	927.9
2786.3 kPa	928.1
2800.4 kPa	928
2814.8 kPa	928.1
2830 kPa	928.1
2846.9 kPa	928.2
2861.3 kPa	928.1
2875.3 kPa	928.1
2892.3 kPa	928.1
2907 kPa	928.1
2921.6 kPa	928.2
2936.8 kPa	928.1
2955 kPa	928.2
2969.8 kPa	928.1
2988.2 kPa	928.2
3003.6 kPa	928.1
3019.4 kPa	928.3
3035.5 kPa	928.4
3053.7 kPa	928.2
3070.2 kPa	928.3
3085.9 kPa	928.2
3102.6 kPa	928.4
3121.8 kPa	928.3
3138.3 kPa	928.4
3154.9 kPa	928.4
3175.2 kPa	928.3
3191.8 kPa	928.3
3209 kPa	928.3
3229.6 kPa	928.4
3247 kPa	928.4
3264.6 kPa	928.4
3285.8 kPa	928.4
3303.6 kPa	928.5
3321.5 kPa	928.5
3343 kPa	928.5
3361.5 kPa	928.6
3379.9 kPa	928.5
3398.8 kPa	928.5
3421.3 kPa	928.5
3440 kPa	928.4
3463.2 kPa	928.4
3482.8 kPa	928.5
3502.4 kPa	928.4
3522.3 kPa	928.7
3542.4 kPa	928.6
3566.7 kPa	928.7
3583.3 kPa	928.6
3608.1 kPa	928.7
3632.7 kPa	928.7
3653.7 kPa	928.6
3674.8 kPa	928.8
3695.9 kPa	928.7
3721.9 kPa	928.7
3743.4 kPa	928.8
3765.8 kPa	928.7
3792.8 kPa	928.8
3815.3 kPa	928.8
3838 kPa	928.8
3861 kPa	928.9
3888.6 kPa	929
3911.4 kPa	929
3935 kPa	928.8
3959.2 kPa	928.9
3987.5 kPa	929
4012.2 kPa	929
4037.5 kPa	928.9
4064.5 kPa	929
